Test results taken from patent US5972982A (priority 1997, dated 1999).
≈ marks a conversion by molar mass, not a printed value.

Tests used:
[1] = test system: several DNA and RNA viruses; conditions: against several DNA and RNA viruses; cited from earlier work
[2] = test system: Mycobacterium tuberculosis strain H37Rv; assay: microbe, parasite or virus in culture; assay type: cell-based; conditions: read-out: MIC VERSUS H37Rv
[3] = test system: Poliovirus Type III vaccine strain (ATCC VR 300); assay type: cell-based
[4] = test system: Poliovirus Type III vaccine strain (ATCC VR 300); assay: microbe, parasite or virus in culture; assay type: cell-based
[5] = test system: Buffalo Green Monkey Kidney Cells (ATCC CCL 81)
[6] = test system: Streptococcus pyogenes; assay: microbe, parasite or virus in culture; conditions: 48 h
[7] = test system: HEP 2 Cells (ATCC HB 8065); assay: Antiviral assay of Respiratory Syncytial Virus: toxicity to uninfected cells; assay type: cell-based
Protocol: c. […] The cell count wells receive media only.
d. The cultures are incubated for 24 hr.
e. […] Scoring is as described above.

Nc1ncnc2c1ncn2C[C@H](O)CO [(S)-9-(2',3'-dihydroxypropyl)adenine]
broad spectrum antiviral activity [1]: broad spectrum antiviral activity

Nc1ncnc2c1ncn2C[C@@H](CO)OCP(=O)(O)O [(S)-9-(3'-dihydroxy-2'-phosphonylmethoxypropyl)adenine]
broad spectrum antiviral activity [1]: broad spectrum antiviral activity

CCCCCCCCCCCCCCCCCCOCC(CO)n1cncn1 (stereo not shown) [CPR 1004, 1-O-octadecyl-2-(1-triazolyl)-2-deoxy-glycerol]
MIC [2]: 12.5 µg/mL (≈ 31.6 µM)
VIRAL CPE [3]: ±
VIRUS YIELD (PFU/mL) [4]: 7.0 × 10^5 PFU/mL
VIRUS YIELD FOLD-REDUCTION [4]: 41.7 fold
activity at 100000 µM ([4]; Enterovirus C, read-out: VIRUS YIELD (YIELD)): 2.4%
TOXICITY [5]: N
toxicity (in words) [5]: not toxic at the concentrations tested
MIC [6]: 1 µg/mL (≈ 2.53 µM)

CCCCCCCCCCCCCCCCCCOCC(CO)n1ccnc1 (stereo not shown) [CPR 1005, 1-O-octadecyl-2-(1-imidazolyl)-2-deoxy-glycerol]
MIC [2]: 6.25 µg/mL (≈ 15.8 µM)
VIRUS YIELD (PFU/mL) [4]: 2.8 × 10^3 PFU/mL
VIRUS YIELD FOLD-REDUCTION [4]: 1.03×10^4 fold
TOXICITY ([7]; Table 4, HEP 2 cells, 24 hr, final concentration 100 (mM)): N
toxicity (in words) ([7]; at the dosages tested): not toxic at the dosages tested
TOXICITY [5]: N
toxicity (in words) [5]: not toxic at the concentrations tested
MIC [6]: 10 µg/mL (≈ 25.3 µM)

CCCCCCCCCCCCCCCCOCC(CO)n1ccnc1 (stereo not shown) [CPR 1104, 1-O-hexadecyl-2-(1-imidazolyl)-2-deoxy-glycerol]
MIC [2]: 1.6 µg/mL (≈ 4.36 µM)
